Values belong to the molecule of their own block, whether it stands above or below them.
Columns and labels:
[1] = biological target: AP2-associated protein kinase 1 (Homo sapiens, UniProt Q2M2I8); assay: Inhibition of AAK1 (unknown origin)
[2] = Apparent volume of distribution in C57BL/6J mouse at 1 mg/kg, iv; type: ADME, organism-based; conditions: in vivo, read-out: Vz
[3] = Metabolic stability in rat liver microsomes assessed as half-life; type: ADME, Microsome
[4] = Tmax in C57BL/6J mouse at 10 mg/kg, po; type: ADME, organism-based; conditions: in vivo
[5] = Metabolic stability in mouse liver microsomes assessed as half-life; type: ADME, Microsome
[6] = Clearance in dog at 1 mg/kg, iv; type: ADME, organism-based, Canis lupus familiaris; conditions: in vivo
[7] = Metabolic stability in dog liver microsomes assessed as half-life; type: ADME, Canis lupus familiaris, Microsome
[8] = Protein binding in dog plasma assessed as unbound fraction; type: ADME, cell-free, Canis lupus familiaris
[9] = Clearance in C57BL/6J mouse at 1 mg/kg, iv; type: ADME, organism-based; conditions: in vivo
[10] = AUC (0 to 24 hrs) in rat at 10 mg/kg, po; type: ADME, organism-based; conditions: in vivo
[11] = Tmax in rat at 10 mg/kg, po; type: ADME, organism-based; conditions: in vivo
[12] = Apparent volume of distribution in dog at 1 mg/kg, iv; type: ADME, organism-based, Canis lupus familiaris; conditions: in vivo, read-out: Vz
[13] = Protein binding in rat plasma assessed as unbound fraction; type: ADME, cell-free
[14] = Clearance in rat at 1 mg/kg, iv; type: ADME, organism-based; conditions: in vivo
[15] = Protein binding in human plasma assessed as unbound fraction; type: ADME, cell-free
CYP3A4 [16] = biological target: T1, CYP3A4 (Homo sapiens, UniProt P08684); assay: Inhibition of CYP3A4 (unknown origin) using midazolam as substrate at 10 uM relative to control; type: ADME; conditions: probe midazolam
T1 sequence (P08684 whole entry): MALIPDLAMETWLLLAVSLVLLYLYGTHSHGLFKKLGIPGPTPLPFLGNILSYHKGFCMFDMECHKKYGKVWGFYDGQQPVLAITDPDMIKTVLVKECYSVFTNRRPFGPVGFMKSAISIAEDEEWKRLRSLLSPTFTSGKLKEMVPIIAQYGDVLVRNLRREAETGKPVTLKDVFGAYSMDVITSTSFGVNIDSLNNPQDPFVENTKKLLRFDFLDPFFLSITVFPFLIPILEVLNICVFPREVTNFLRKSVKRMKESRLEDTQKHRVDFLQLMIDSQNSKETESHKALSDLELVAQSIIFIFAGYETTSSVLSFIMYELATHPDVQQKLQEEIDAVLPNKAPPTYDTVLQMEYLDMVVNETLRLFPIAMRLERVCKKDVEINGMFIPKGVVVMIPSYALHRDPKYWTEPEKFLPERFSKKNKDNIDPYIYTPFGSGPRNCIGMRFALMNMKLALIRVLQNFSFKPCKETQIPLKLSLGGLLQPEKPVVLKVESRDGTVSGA

[17] = Protein binding in mouse plasma assessed as unbound fraction; type: ADME, cell-free
CYP2D6 = CYP2D6 (Homo sapiens, UniProt P10635); assay: Inhibition of CYP2D6 (unknown origin) at 10 uM relative to control; type: ADME
Chain of CYP2D6 (P10635 whole entry): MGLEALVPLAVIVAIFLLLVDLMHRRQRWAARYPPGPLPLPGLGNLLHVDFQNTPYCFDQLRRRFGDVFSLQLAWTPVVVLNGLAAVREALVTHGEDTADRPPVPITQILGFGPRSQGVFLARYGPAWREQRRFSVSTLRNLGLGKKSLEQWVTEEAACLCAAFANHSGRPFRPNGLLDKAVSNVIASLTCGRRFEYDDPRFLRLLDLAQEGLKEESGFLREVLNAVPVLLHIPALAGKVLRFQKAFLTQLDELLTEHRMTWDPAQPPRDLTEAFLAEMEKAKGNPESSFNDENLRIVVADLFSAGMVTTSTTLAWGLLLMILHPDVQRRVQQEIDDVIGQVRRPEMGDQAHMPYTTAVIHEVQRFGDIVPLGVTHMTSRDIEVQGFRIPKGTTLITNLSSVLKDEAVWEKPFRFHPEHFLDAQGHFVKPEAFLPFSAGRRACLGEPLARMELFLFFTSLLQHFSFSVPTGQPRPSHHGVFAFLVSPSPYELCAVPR

[18] = AUC (0 to 24 hrs) in C57BL/6J mouse at 10 mg/kg, po; type: ADME, organism-based; conditions: in vivo
[19] = Tmax in dog at 5 mg/kg, po; type: ADME, organism-based, Canis lupus familiaris; conditions: in vivo
CYP2C9 = CYP2C9 (Homo sapiens, UniProt P11712); assay: Inhibition of CYP2C9 (unknown origin) at 10 uM relative to control; type: ADME
Chain of CYP2C9 (P11712 whole entry): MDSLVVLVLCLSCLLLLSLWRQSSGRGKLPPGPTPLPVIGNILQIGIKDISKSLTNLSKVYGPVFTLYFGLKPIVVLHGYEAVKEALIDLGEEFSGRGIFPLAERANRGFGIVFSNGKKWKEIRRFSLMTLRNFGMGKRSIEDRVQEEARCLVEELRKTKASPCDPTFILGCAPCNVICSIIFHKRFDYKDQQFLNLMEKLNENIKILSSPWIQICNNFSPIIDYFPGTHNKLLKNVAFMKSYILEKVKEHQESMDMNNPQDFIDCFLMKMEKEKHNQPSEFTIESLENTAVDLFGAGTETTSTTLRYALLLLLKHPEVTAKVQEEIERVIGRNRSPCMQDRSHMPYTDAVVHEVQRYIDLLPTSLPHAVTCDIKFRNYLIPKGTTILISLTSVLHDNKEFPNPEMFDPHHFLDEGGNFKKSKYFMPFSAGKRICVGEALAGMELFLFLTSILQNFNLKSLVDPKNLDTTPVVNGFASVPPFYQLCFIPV

[20] = Oral bioavailability in rat at 10 mg/kg; type: ADME, organism-based; conditions: in vivo
[21] = Oral bioavailability in dog at 5 mg/kg; type: ADME, organism-based, Canis lupus familiaris; conditions: in vivo
[22] = Ratio of AUC (0 to 24 hrs) in C57BL/6J mouse brain to plasma; type: ADME; conditions: read-out: Ratio AUC
[23] = Metabolic stability in human liver microsomes assessed as half-life; type: ADME, Microsome
[24] = Half-life in dog at 1 mg/kg, iv; type: ADME, organism-based, Canis lupus familiaris; conditions: in vivo
[25] = Half-life in C57BL/6J mouse at 10 mg/kg, po; type: ADME, organism-based; conditions: in vivo
[26] = biological target: Voltage-gated inwardly rectifying potassium channel KCNH2 (Homo sapiens, UniProt Q12809); assay: Inhibition of human ERG by patch clamp assay; type: toxicity
Chain of Voltage-gated inwardly rectifying potassium channel KCNH2 (Q12809 whole entry): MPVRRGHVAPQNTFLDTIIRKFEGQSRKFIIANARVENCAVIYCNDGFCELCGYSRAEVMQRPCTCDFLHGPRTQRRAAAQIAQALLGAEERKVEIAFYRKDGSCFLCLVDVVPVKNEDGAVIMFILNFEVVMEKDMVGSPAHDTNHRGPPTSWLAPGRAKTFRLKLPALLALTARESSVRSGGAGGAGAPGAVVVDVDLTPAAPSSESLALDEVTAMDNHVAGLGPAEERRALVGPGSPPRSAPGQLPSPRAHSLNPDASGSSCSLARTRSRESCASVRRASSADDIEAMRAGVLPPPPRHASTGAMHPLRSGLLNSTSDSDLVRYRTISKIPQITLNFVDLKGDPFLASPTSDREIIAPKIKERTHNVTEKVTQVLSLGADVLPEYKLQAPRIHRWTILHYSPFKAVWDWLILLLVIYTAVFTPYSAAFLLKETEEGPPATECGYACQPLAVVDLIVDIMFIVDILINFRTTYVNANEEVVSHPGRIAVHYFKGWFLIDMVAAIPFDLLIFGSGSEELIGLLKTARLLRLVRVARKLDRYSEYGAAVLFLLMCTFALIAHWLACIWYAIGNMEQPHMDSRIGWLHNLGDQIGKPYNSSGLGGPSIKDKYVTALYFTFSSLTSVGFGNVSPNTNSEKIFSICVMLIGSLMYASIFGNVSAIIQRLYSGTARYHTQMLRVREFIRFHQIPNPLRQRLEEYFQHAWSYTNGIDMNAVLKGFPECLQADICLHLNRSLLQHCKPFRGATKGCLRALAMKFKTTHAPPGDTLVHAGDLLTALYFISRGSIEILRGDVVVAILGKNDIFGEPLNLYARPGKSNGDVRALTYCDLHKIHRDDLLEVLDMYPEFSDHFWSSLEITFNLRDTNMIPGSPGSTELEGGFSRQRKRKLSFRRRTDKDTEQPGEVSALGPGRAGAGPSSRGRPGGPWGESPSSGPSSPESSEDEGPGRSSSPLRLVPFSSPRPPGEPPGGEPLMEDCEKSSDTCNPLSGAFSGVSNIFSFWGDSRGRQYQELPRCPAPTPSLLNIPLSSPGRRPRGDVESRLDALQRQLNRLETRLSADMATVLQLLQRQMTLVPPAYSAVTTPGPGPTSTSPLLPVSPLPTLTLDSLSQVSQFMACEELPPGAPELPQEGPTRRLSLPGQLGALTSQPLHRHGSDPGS

[27] = Cytotoxicity against human HepG2 cells; type: toxicity, cell-based
[28] = Oral bioavailability in C57BL/6J mouse at 10 mg/kg; type: ADME, organism-based; conditions: in vivo
[29] = Half-life in rat at 1 mg/kg, iv; type: ADME, organism-based; conditions: in vivo
[30] = Cmax in C57BL/6J mouse at 10 mg/kg, po; type: ADME, organism-based; conditions: in vivo
[31] = Apparent volume of distribution in rat at 1 mg/kg, iv; type: ADME, organism-based; conditions: in vivo, read-out: Vz
CYP3A4 [32] = biological target: T1, CYP3A4; assay: Inhibition of CYP3A4 (unknown origin) using testosterone as substrate at 10 uM relative to control; type: ADME; conditions: probe testosterone
[33] = AUC (0 to 24 hrs) in dog at 5 mg/kg, po; type: ADME, organism-based, Canis lupus familiaris; conditions: in vivo
[34] = AUC (0 to 24 hrs) in C57BL/6J mouse at 1 mg/kg, iv; type: ADME, organism-based; conditions: in vivo
[35] = Half-life in C57BL/6J mouse at 1 mg/kg, iv; type: ADME, organism-based; conditions: in vivo

Chain of AP2-associated protein kinase 1 (Q2M2I8 whole entry): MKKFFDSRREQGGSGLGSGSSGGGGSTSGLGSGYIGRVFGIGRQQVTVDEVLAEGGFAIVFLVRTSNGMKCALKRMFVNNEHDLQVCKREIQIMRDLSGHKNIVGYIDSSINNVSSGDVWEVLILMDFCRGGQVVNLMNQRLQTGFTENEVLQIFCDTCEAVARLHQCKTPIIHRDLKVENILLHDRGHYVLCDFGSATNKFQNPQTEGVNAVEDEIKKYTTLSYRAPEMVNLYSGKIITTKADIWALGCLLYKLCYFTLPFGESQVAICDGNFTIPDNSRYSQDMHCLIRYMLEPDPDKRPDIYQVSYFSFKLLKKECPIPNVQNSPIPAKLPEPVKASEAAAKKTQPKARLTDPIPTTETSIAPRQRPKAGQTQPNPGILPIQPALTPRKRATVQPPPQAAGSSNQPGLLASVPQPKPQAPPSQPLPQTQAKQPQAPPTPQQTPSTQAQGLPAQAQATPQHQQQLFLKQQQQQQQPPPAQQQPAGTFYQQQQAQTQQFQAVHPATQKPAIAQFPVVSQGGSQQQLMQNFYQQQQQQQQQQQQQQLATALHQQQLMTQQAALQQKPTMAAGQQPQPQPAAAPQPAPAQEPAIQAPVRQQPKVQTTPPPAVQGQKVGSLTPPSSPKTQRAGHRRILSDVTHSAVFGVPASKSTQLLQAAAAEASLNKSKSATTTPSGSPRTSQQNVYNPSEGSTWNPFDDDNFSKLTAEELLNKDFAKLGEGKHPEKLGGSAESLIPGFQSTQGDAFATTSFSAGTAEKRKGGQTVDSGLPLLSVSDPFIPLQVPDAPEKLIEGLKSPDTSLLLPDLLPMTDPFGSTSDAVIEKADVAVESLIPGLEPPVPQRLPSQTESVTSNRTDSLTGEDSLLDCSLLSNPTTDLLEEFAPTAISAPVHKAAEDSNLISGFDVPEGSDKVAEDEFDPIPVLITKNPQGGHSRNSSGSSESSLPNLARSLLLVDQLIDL

SMILES: CC(C)C[C@](C)(N)COc1ccc(-c2ccnc(C(F)F)c2)n2cnnc12
IC50 [1]: > 20 nM

SMILES: Cc1cnc2c(-c3ccnc(C(F)F)c3)ccc(OC[C@@](C)(N)CC(C)C)n12
IC50 [1]: > 20 nM

SMILES: CC(C)C[C@](C)(N)COc1ccc(-c2ccnc(C(F)F)c2)nc1C(F)F [PILAVAPADIN]
Vd [2]: 18 L/kg
half-life [3]: 1.61 h
Tmax [4]: 1.17 h
half-life [5]: 2.61 h
clearance [6]: 20 mL/min/kg
half-life [7]: 1.11 h
fraction unbound [8]: 0.0417
clearance [9]: 12.2 mL/min/kg
AUC(0-t) [10]: 3790 ng·h/mL
IC50 [1]: 5 nM
Tmax [11]: 6.7 h
Vd [12]: 5.3 L/kg
fraction unbound [13]: 0.0894
clearance [14]: 28.3 mL/min/kg
fraction unbound [15]: 0.0875
inhibition at 10 µM (CYP3A4 [16]): < 20%
fraction unbound [17]: 0.02
inhibition at 10 µM (CYP2D6): < 20%
AUC(0-t) [18]: 9150 ng·h/mL
Tmax [19]: 2.3 h
inhibition at 10 µM (CYP2C9): < 20%
bioavailability [20]: 77%
bioavailability [21]: 116%
Kp [22]: 13.9
half-life [23]: 2.21 h
half-life [24]: 3.2 h
half-life [25]: 19.6 h
IC50 [26]: 3400 nM
IC50 [27]: 9500 nM
bioavailability [28]: 103%
half-life [29]: 9.9 h
Cmax [30]: 718 ng/mL
Vd [31]: 25 L/kg
inhibition at 10 µM (CYP3A4 [32]): < 20%
AUC(0-t) [33]: 4740 ng·h/mL
AUC(0-t) [34]: 892 ng·h/mL
half-life [35]: 17.3 h

SMILES: CC(C)C[C@](C)(N)COc1ccc(-c2ccnc(C(F)F)c2)n2ccnc12
IC50 [1]: > 20 nM

The next lines start with the values.

IC50 [1]: > 20 nM
SMILES: Cc1cn2c(OC[C@@](C)(N)CC(C)C)ccc(-c3ccnc(C(F)F)c3)c2n1

IC50 [1]: > 20 nM
SMILES: CC(C)C[C@](C)(N)COc1ccc(-c2ccnc(C(F)F)c2)c2nc(C(F)F)cn12
